Measurements from ChEMBL document CHEMBL1201862, “PubChem BioAssay data set” (2004).
Active and inactive are the calls of the source.

Legend:
[1] = THP-1 cell cytotoxicity, dose response, cytotoxicity control for Vif-APOBEC3G degradation inhibitor project, THP-1 cells (AID 1117359); format: functional; conditions: Human immunodeficiency virus 1, THP-1
[2] = target: T1, Low molecular weight phosphotyrosine protein phosphatase (Homo sapiens, UniProt P24666); format: functional; conditions: read-out: IC50_Mean
T1 sequence (P24666 whole entry): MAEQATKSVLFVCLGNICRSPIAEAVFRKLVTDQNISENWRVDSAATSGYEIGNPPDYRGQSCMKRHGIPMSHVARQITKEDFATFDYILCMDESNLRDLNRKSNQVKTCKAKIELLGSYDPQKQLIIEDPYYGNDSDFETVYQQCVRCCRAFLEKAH

[3] = target: T2, Tyrosine-protein phosphatase non-receptor type 5 (Homo sapiens, UniProt P54829); test: STEP phosphatase inhibitors, confirmation, biochemical, fluorescence intensity, uHTS hits (AID 602372); format: functional; conditions: read-out: IC50_Mean
T2 sequence (P54829 whole entry): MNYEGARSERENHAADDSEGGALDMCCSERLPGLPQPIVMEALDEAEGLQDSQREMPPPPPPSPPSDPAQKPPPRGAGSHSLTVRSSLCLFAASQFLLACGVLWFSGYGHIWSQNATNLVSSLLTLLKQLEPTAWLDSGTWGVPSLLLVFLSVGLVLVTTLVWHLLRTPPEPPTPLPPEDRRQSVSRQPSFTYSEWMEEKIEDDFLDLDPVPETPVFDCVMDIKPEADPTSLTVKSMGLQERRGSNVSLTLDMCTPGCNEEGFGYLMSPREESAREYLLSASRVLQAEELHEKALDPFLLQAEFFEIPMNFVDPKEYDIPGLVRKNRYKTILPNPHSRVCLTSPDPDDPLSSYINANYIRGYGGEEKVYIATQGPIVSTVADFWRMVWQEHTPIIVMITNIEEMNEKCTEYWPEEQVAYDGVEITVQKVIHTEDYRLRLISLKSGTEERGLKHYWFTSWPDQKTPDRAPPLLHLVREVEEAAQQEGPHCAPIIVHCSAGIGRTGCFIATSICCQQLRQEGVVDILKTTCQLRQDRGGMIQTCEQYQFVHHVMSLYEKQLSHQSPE

[4] = target: T3, Tyrosine-protein phosphatase non-receptor type 11 (Homo sapiens, UniProt Q06124); test: SHP2 phosphatase inhibition, dose response, selectivity assay for STEP inhibitor project, biochemical (AID 602367); format: functional; conditions: read-out: IC50_Mean
T3 sequence (Q06124 whole entry): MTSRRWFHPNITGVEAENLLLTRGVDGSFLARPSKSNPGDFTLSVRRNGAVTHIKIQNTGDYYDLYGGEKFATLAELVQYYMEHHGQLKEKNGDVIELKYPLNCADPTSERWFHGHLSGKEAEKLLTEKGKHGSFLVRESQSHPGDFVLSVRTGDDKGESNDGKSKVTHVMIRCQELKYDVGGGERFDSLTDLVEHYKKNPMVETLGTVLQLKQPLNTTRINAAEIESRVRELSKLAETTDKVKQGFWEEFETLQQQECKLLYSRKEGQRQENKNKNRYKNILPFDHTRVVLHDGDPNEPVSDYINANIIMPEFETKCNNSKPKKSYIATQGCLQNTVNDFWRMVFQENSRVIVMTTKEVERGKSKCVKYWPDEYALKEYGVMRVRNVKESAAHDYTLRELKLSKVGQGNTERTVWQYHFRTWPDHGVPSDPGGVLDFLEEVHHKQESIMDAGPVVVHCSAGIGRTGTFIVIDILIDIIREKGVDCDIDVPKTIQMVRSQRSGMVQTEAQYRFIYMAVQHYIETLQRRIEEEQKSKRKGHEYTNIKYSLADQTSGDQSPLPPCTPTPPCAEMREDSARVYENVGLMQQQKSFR

[5] = target: Dual specificity protein phosphatase 3 (Homo sapiens, UniProt P51452); test: VHR phosphatase inhibition, dose response, selectivity assay for STEP inhibitor project, biochemical (AID 602374); format: functional; conditions: read-out: IC50_Mean
[6] = target: T1, Low molecular weight phosphotyrosine protein phosphatase; format: functional; conditions: read-out: IC50_Mean; remark: listed apart in the source
[7] = miR-122 activators in hepatoma reporter cells, dose response, cell-based, Huh7 psiCHECK-miR122, Renilla luciferase, cherry-picked (AID 651956); format: functional;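 also: huh7 hepatoma cells stably carrying a psiCHECK-2 miR-122 sensor plasmid; renilla luciferase signal reporting endogenous miR-122 activity after 48 h compound exposure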
[8] = target: T4, Small ubiquitin-related modifier 1 (Homo sapiens, UniProt P63165); test: inhibitors of SUMO1 partner interactions, dose response, biochemical, FRET (AID 624383); format: functional; conditions: read-out: IC50_Mean
[9] = target: T5, Voltage-gated N-type calcium channel alpha-1B subunit/Amyloid beta A4 precursor protein-binding family A member 1 (Homo sapiens, UniProt Q00975+Q02410); format: protein assay
[10] = target: T5, Voltage-gated N-type calcium channel alpha-1B subunit/Amyloid beta A4 precursor protein-binding family A member 1; format: protein assay; remark: listed apart in the source
[11] = target: T4, Small ubiquitin-related modifier 1; test: inhibitors of SUMO1 peptide binding, dose response, biochemical, fluorescence polarization, uHTS hits (AID 624382); format: functional; conditions: read-out: IC50_Mean
[12] = target: T6, Carboxy-terminal domain RNA polymerase II polypeptide A small phosphatase 1 (Homo sapiens, UniProt Q9GZU7); test: inhibitors of CTDSP1, concentration-response testing, biochemical assay, absorbance-based, actives from ultra-high-throughput screening (AID 540297); format: functional
T6 sequence (Q9GZU7 whole entry): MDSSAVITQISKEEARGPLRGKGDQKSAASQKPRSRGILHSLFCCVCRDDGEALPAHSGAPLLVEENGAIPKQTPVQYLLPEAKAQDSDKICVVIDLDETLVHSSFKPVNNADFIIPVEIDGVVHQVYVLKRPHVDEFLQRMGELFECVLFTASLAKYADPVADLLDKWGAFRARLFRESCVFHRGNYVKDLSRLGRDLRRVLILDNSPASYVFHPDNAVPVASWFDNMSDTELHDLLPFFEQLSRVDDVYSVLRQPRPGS

[13] = target: T7, Microphthalmia-associated transcription factor (Homo sapiens, UniProt O75030); test: TRPM1 promoter luciferase signal decrease, dose response, MITF inhibitor project, cell-based, SK-MEL-5, cherry-picked, set 3 (AID 493073); format: functional
T7 sequence (O75030 whole entry): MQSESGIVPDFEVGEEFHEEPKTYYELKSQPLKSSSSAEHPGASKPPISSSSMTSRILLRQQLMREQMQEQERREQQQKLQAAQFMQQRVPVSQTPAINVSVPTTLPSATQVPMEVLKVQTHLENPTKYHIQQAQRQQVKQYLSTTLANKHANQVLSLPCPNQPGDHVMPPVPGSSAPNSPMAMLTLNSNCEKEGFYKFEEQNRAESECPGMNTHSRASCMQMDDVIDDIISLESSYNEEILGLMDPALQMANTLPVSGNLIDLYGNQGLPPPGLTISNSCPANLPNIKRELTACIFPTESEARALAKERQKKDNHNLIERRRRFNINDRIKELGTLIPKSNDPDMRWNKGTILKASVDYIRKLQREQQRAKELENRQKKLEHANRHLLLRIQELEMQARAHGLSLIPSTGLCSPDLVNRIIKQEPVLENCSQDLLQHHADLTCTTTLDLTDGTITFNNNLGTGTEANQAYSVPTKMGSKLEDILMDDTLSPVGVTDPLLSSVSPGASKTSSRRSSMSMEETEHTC

[14] = Luminescence Cell-Based Dose Retest to Confirm Inhibitors of Cancer Stem Cells. [Related pubchem assays (depositor defined):AID2717, AID2721]; format: functional; conditions: Homo sapiens
[15] = Fluorescence-based cell-based high throughput dose response assay for inhibitors of the interaction of nucleotide-binding oligomerization domain containing 2 (NOD2) and the receptor-interacting serine-threonine kinase 2 (RIPK2).; format: functional; conditions: Homo sapiens
[16] = HepG2 cell cytotoxicity, dose response, cytotoxicity control for Shn3 inhibitor project, CellTiter-Glo, cherry-picked (AID 624134); format: functional, cell-based
[17] = target: T8, Rac GTPase-activating protein 1 (Homo sapiens, UniProt Q9H0H5); test: MgcRacGAP GTPase-activating activity inhibitors, confirmation, biochemical, ADP Hunter fluorescence, primary and confirmatory (AID 624330); format: functional
T8 sequence (Q9H0H5 whole entry): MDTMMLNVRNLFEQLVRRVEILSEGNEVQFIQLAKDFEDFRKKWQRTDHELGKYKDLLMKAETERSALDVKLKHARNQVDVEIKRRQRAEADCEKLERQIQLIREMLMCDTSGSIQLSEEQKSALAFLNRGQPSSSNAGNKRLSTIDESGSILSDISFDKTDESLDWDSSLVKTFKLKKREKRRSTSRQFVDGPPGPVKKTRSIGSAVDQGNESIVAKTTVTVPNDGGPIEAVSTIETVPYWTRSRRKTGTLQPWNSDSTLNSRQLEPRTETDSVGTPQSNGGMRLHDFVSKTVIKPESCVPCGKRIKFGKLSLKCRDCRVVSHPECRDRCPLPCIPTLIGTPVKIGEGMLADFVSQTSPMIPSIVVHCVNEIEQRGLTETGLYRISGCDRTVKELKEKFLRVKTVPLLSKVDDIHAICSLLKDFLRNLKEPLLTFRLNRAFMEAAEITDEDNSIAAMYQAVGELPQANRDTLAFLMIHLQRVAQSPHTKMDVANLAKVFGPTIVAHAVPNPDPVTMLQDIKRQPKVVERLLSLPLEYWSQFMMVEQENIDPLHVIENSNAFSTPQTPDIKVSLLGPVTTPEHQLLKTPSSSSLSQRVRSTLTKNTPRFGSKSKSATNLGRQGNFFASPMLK

[18] = cytotoxicity toward NIH3T3 fibroblasts, dose response, counter-screen, cell-based, ATP luminescence, mouse fibroblasts (AID 2010); format: functional;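 also: cells exposed to compound for about 90 hours before reading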
[19] = HeLa cell cytotoxicity, dose response, cytotoxicity control for MgcRacGAP inhibitor project (AID 624300); format: functional
[20] = Shn3 3'UTR reporter inhibitors, dose response, cell-based, Clone20 osteoblasts, firefly luciferase, cherry-picked (AID 624132); format: functional;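 also: firefly luciferase luminescence from reporter carrying the Shn3 3'UTR in osteoblasts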
[21] = inhibitors of intracellular T. cruzi replication, confirmation, NIH3T3 host cells, beta-gal luminescence (AID 2044); format: functional, cell-based;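 also: intracellular parasites grown in NIH/3T3 mouse fibroblasts as host cells; luminescent beta-galactosidase reporter signal from transgenic T. cruzi replicating inside host cells; inhibitors lower the luminescence signal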
[22] = target: T9, Short transient receptor potential channel 4 (Mus musculus, UniProt Q9QUQ5); test: mouse TRPC4 channel activators, dose response, cell-based, HEK293 TRPC4/mu-opioid, Fluo-4 calcium (AID 434937); format: functional
T9 sequence (Q9QUQ5 whole entry): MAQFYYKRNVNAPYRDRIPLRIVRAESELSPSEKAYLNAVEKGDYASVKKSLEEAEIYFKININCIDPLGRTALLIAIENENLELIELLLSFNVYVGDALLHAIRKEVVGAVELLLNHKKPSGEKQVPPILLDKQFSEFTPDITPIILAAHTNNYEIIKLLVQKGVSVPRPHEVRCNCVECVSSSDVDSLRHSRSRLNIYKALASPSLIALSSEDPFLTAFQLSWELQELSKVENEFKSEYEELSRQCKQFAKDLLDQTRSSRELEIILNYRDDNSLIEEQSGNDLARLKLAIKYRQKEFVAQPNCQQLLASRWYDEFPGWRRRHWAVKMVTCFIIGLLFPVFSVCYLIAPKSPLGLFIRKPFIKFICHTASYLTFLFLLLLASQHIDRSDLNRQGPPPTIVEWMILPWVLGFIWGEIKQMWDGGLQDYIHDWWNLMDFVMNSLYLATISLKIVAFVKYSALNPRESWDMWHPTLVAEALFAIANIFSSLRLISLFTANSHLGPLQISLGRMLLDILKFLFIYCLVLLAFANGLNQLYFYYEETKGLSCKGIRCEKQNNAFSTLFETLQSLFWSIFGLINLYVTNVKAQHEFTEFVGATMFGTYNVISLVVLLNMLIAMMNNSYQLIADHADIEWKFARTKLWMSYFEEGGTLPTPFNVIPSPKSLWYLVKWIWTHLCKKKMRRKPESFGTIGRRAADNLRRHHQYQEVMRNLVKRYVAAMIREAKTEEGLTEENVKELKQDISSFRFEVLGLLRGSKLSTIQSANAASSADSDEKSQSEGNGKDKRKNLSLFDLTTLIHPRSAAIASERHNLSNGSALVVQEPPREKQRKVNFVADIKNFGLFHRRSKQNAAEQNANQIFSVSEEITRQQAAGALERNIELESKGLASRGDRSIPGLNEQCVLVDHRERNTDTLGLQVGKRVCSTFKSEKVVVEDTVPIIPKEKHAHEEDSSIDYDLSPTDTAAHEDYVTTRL

[23] = control 3'UTR Renilla luciferase suppression, dose response, counter-screen for Shn3 inhibitor project, cell-based, Clone20-Shn3RL, cherry-picked (AID 624133); format: functional

T5 sequence (Q00975 whole entry): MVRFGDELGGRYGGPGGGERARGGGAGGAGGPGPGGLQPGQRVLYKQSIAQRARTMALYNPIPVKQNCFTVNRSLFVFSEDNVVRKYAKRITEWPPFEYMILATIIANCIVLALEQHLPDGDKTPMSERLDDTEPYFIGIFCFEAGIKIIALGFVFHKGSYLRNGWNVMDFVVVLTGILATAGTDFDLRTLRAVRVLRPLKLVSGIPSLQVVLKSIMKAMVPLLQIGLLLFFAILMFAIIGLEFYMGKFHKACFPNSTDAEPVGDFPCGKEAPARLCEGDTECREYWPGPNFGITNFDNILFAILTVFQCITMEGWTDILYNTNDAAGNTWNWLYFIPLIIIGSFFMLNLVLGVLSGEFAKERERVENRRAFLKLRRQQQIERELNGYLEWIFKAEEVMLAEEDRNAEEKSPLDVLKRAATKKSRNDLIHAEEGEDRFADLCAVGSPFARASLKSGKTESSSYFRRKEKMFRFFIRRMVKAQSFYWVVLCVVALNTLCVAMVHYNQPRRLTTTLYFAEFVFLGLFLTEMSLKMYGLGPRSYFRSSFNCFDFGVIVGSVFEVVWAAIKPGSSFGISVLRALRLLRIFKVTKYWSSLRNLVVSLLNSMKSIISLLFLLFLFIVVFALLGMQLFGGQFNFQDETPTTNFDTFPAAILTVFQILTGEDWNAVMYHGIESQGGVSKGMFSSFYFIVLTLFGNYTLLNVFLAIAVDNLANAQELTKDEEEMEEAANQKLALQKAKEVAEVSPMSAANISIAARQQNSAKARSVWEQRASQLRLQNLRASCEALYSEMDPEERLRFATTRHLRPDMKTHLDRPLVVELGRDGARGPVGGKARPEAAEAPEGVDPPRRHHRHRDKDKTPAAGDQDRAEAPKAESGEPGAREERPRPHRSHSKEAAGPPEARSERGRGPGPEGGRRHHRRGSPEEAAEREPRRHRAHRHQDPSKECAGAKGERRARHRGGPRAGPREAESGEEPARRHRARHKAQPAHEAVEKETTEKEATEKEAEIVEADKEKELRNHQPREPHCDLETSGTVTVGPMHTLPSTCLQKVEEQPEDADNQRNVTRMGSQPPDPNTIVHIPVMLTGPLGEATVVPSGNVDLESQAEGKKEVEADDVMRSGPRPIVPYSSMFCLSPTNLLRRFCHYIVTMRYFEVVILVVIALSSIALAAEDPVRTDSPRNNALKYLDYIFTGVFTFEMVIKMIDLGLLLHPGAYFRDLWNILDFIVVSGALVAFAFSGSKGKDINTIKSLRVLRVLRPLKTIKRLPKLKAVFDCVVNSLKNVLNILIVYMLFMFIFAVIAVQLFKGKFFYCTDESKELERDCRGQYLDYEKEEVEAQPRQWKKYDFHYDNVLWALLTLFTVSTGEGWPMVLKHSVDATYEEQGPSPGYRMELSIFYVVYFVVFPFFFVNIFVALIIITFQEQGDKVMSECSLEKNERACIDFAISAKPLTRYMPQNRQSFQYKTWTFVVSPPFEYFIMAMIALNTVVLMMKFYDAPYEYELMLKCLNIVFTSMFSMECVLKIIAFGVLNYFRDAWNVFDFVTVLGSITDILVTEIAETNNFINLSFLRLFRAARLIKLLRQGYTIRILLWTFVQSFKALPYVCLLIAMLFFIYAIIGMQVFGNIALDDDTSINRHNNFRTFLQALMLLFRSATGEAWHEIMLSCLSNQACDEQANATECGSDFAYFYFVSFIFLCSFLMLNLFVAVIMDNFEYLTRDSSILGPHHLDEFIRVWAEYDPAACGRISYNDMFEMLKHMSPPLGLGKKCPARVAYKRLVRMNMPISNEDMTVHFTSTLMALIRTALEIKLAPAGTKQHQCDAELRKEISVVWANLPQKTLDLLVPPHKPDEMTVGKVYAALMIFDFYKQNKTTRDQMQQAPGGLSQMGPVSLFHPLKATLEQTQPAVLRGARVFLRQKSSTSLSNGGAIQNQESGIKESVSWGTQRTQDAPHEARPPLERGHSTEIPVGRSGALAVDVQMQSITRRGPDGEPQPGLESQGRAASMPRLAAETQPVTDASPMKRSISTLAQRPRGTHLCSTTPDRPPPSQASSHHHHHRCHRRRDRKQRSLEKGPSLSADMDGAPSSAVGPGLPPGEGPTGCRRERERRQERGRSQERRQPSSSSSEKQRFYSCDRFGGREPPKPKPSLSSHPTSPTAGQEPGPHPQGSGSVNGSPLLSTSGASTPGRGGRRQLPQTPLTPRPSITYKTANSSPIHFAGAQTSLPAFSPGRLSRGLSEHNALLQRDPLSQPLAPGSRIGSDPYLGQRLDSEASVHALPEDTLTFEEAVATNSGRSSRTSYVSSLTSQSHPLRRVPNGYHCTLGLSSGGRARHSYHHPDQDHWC
T5 sequence (Q02410 whole entry): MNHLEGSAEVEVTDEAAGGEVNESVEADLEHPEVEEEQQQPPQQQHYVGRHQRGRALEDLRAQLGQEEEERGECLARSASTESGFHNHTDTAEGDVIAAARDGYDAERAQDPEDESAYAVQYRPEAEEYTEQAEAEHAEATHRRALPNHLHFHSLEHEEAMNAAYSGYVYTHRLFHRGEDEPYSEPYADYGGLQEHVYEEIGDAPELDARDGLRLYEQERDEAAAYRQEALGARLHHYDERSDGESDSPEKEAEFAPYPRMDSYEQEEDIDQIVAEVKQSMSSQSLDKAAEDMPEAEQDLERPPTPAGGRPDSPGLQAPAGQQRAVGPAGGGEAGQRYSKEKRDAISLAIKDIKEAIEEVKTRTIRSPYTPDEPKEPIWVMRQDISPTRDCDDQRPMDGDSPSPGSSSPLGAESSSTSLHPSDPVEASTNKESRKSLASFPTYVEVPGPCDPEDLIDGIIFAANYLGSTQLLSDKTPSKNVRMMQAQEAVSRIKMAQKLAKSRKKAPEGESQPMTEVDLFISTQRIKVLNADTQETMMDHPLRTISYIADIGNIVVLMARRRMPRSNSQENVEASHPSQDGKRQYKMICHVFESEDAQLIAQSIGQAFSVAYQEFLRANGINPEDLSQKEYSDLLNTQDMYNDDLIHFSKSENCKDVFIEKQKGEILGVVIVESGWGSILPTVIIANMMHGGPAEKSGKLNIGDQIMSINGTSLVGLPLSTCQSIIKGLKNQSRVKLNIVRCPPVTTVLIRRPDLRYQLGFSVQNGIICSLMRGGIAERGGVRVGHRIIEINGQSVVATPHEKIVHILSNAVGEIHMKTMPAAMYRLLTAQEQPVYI
T4 sequence (P63165 whole entry): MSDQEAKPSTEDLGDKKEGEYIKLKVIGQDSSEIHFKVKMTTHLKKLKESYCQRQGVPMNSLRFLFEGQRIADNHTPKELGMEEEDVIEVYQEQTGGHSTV
Sequence of Dual specificity protein phosphatase 3 (P51452 whole entry): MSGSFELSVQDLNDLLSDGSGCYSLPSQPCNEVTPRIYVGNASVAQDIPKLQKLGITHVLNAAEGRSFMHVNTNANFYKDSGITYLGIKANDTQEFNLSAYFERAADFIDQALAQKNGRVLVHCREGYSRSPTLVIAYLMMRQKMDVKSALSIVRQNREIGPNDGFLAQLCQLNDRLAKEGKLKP

For `NN=C1C(Cl)=C(Cl)C(Cl)=C1Cl`, the CC50 [1] was > 40 µM (active), the IC50 [2] was 38.7 µM (inactive) and the IC50 [3] was > 80 µM (inactive). The IC50 [4] was 1.45 µM (active), the IC50 [5] was 1.99 µM (active) and the IC50 [6] was 7.19 µM (active).
In the case of `COCC(=O)N(C)C[C@H]1Oc2cc(C#Cc3cccnc3)ccc2S(=O)(=O)N([C@@H](C)CO)C[C@H]1C`, the AC50 [7] was 1.09 µM (active).
With `C=Cc1ccc(C(=O)N2CCCC(CCC(=O)N3CCN(c4ccccn4)CC3)C2)cc1` (centres undefined) the IC50 [8] was 20.8 µM (inactive), the IC50 [9] was 8.01 µM (active) and the IC50 [10] was > 50 µM (inactive). The IC50 [11] was > 66.6 µM (inactive) and the IC50 [12] was 22.2 µM (active).
With `O=C(/C=C/c1ccc(Cl)c([N+](=O)[O-])c1)c1ccc(O)cc1` the AC50 [13] was 17.4 µM (active), the AC50 [14] was 4.36 µM (active) and the IC50 [15] was 7.04 µM (active).
In the case of `COc1ccc(CN2CCC(N(CCc3ccccc3)Cc3ccccc3)CC2)c(OC)c1`, the AC50 [16] was 13.6 µM (active), the IC50 [17] was 96.6 µM (active) and the AC50 [14] was 5.9 µM (active). For the same molecule, the EC50 [18] was > 60 µM (inconclusive), the CC50 [19] was 56.3 µM (active) and the AC50 [20] was 8.1 µM (active). The EC50 [21] was 1.49 µM (active), the EC50 [22] was 5.31 µM (active) and the AC50 [23] was 8.85 µM (active).
